Drawing on patent US8501936B2 (priority 2009, dated 2013), this text covers IC50 for 24 compounds.

This test addresses human JAK2 (Homo sapiens (Human), UniProt O60674). As to conditions: read-out: JAK2 IC50.

pIC50: −log10 of the molar value.

Chain of human JAK2 (O60674 815-1132): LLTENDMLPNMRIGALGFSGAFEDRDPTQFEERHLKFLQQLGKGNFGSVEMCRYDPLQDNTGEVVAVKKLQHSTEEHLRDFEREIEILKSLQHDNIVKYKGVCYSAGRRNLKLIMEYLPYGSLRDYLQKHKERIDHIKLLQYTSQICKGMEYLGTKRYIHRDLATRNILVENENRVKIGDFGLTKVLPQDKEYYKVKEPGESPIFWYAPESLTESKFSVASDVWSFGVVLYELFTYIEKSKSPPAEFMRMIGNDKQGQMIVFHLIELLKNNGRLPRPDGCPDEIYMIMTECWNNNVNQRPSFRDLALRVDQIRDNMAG

`COc1ccccc1Nc1nc2c(-c3cccc(C(F)(F)F)c3)cccn2n1` [Example 21, (2-Methoxy-phenyl)-[8-(3-trifluoromethyl-phenyl)-[1,2,4]triazolo[1,5-a]pyridin-2-yl]-amine]: the negative-log IC50 (pIC50) (as a rule, −log10 of the IC50, conventionally taken in molar units) is 5.52. On to `COc1ccccc1Nc1nc2c(-c3ccc(S(C)(=O)=O)cc3)cccn2n1` [Example 25, [8-(4-Methanesulfonyl-phenyl)-[1,2,4]triazolo[1,5-a]pyridin-2-yl]-(2-methoxy-phenyl)-amine], for which the pIC50 was 5.88. For the compound `CC1(C)CCC(C)(C)c2cc(Nc3nc4c(-c5ccc(S(C)(=O)=O)cc5)cccn4n3)ccc21` [Example 28, [8-(4-Methanesulfonyl-phenyl)-[1,2,4]triazolo[1,5-a]pyridin-2-yl]-(5,5,8,8-tetramethyl-5,6,7,8-tetrahydro-naphthalen-2-yl)-amine], the pIC50 was 7.56. Take `COc1ccc(Nc2nc3c(N4CCN(C)CC4)cccn3n2)cc1` [Example 30, (4-Methoxy-phenyl)-[8-(4-methyl-piperazin-1-yl)-[1,2,4]triazolo[1,5-a]pyridin-2-yl]-amine]: the pIC50 was 6.36. As to `COc1ccc(Nc2nc3c(N4CCN(S(C)(=O)=O)CC4)cccn3n2)cc1` [Example 33, [8-(4-Methanesulfonyl-piperazin-1-yl)-[1,2,4]triazolo[1,5-a]pyridin-2-yl]-(4-methoxy-phenyl)-amine], the negative logarithm of the IC50 (pIC50) is 7.22. Consider `COc1ccc(Nc2nc3c(C4=CCN(S(C)(=O)=O)CC4)cccn3n2)cc1` [Example 34, [8-(1-Methanesulfonyl-1,2,3,6-tetrahydro-pyridin-4-yl)-[1,2,4]triazolo[1,5-a]pyridin-2-yl]-(4-methoxy-phenyl)-amine], for which the negative-log IC50 (pIC50) was 9.00.

Take `CN1CCN(c2ccc(Nc3nc4ccc(-c5ccc(S(C)(=O)=O)cc5)cn4n3)cc2)CC1` [Example 37, [6-(4-Methanesulfonyl-phenyl)-[1,2,4]triazolo[1,5-a]pyridin-2-yl]-[4-(4-methyl-piperazin-1-yl)-phenyl]-amine]: the pIC50 was 5.53. For the compound `COc1ccc(Nc2nc3c(NC4CCN(S(C)(=O)=O)CC4)cccn3n2)cc1` [Example 41, N(8)-(1-Methanesulfonyl-piperidin-4-yl)-N(2)-(4-methoxy-phenyl)-[1,2,4]triazolo[1,5-a]pyridine-2,8-diamine], the negative logarithm of the IC50 (pIC50) is 6.43. As to `CS(=O)(=O)c1ccc(-c2cccn3nc(Nc4ccc(OS(=O)(=O)C(F)(F)C(F)(F)C(F)(F)C(F)(F)F)cc4)nc23)cc1` [Example 45, 1,1,2,2,3,3,4,4,4-Nonafluoro-butane-1-sulfonic acid 4-[8-(4-methanesulfonyl-phenyl)-[1,2,4]triazolo[1,5-a]pyridin-2-ylamino]-phenyl ester], the pIC50 is 6.97. Then `CN1CCN(c2cccc(Nc3nc4c(-c5ccccc5S(C)(=O)=O)cccn4n3)c2)CC1` [Example 67, [8-(2-Methanesulfonyl-phenyl)-[1,2,4]triazolo[1,5-a]pyridin-2-yl]-[3-(4-methyl-piperazin-1-yl)-phenyl]-amine], with 5.60; and `CN1CCN(c2cccc(Nc3nc4c(Nc5ccccc5S(C)(=O)=O)cccn4n3)c2)CC1` [Example 68, N(8)-(2-Methanesulfonyl-phenyl)-N(2)-[3-(4-methyl-piperazin-1-yl)-phenyl]-[1,2,4]triazolo[1,5-a]pyridine-2,8-diamine], with 7.54. As for `CC(C)(C)OC(=O)N1CCN(c2ccc(Nc3nc4cccc(-c5ccccc5)n4n3)cc2)CC1` [Example 77, 4-[4-(5-Phenyl-[1,2,4]triazolo[1,5-a]pyridin-2-ylamino)-phenyl]-piperazine-1-carboxylic acid tert-butyl ester], the negative logarithm of the IC50 (pIC50) was 8.18. Consider `COc1cccc(Nc2nc3cccc(-c4cccc(S(C)(=O)=O)c4)n3n2)c1` [Example 79, [5-(3-Methanesulfonyl-phenyl)-[1,2,4]triazolo[1,5-a]pyridin-2-yl]-(3-methoxy-phenyl)-amine], for which the pIC50 was 7.82. Turning to `COc1ccccc1Nc1nc2cccc(-c3cccc(S(C)(=O)=O)c3)n2n1` [Example 80, [5-(3-Methanesulfonyl-phenyl)-[1,2,4]triazolo[1,5-a]pyridin-2-yl]-(2-methoxy-phenyl)-amine], the pIC50 is 5.92. In the case of `CN1CCN(c2ccc(NC(=O)Nc3nc4cccc(-c5ccc(S(C)(=O)=O)cc5)n4n3)cc2)CC1` [Example 90, 1-[5-(4-Methanesulfonyl-phenyl)-[1,2,4]triazolo[1,5-a]pyridin-2-yl]-3-[4-(4-methyl-piperazin-1-yl)-phenyl]-urea], the pIC50 is 5.81. Turning to `Cc1nn(C)c(C)c1Nc1nc2c(-c3ccc(S(C)(=O)=O)cc3)cccn2n1` [Example 210, [8-(4-Methanesulfonyl-phenyl)-[1,2,4]triazolo[1,5-a]pyridin-2-yl]-(1,3,5-trimethyl-1H-pyrazol-4-yl)-amine], the negative-log IC50 (pIC50) was 5.52.

Consider `CN1CCN(c2cccc(Nc3nc4c(Oc5ccc(S(C)(=O)=O)cc5)cccn4n3)c2)CC1` [Example 214, [8-(4-Methanesulfonyl-phenoxy)-[1,2,4]triazolo[1,5-a]pyridin-2-yl]-[3-(4-methyl-piperazin-1-yl)-phenyl]-amine], for which the pIC50 is 5.78. Take `CC(C)(C)OC(=O)N1CCc2ccc(Nc3nc4c(-c5cccc6c5OC(F)(F)O6)cccn4n3)cc2CC1` [Example 243]: the negative logarithm of the IC50 (pIC50) was 5.67. With `CN1CCN(c2ccc(Nc3nc4c(O)cccn4n3)cc2)CC1` [Example 264, 2-[4-(4-Methyl-piperazin-1-yl)-phenylamino]-[1,2,4]triazolo[1,5-a]pyridin-8-ol], the pIC50 is 6.25. Regarding `Cc1cccn2nc(Nc3ccc(S(C)(=O)=O)cc3)nc12` [Example 265, (4-Methanesulfonyl-phenyl)-(8-methyl-[1,2,4]triazolo[1,5-a]pyridin-2-yl)-amine], the pIC50 was 5.58. Then `CC(C)(C)OC(=O)N1CCc2ccc(Nc3nc4c(-c5cc(C(F)(F)F)ccc5F)cccn4n3)cc2CC1` [Example 269, [8-(2-Fluoro-5-trifluoromethyl-phenyl)-[1,2,4]triazolo[1,5-a]pyridin-2-ylamino]-[2,3,4,5-tetrahydro-1H-benzo[d]azopin-7-yl]-3-carboxylic acid tert-butyl ester], with 6.23; and `CC(C)(C)OC(=O)N1CCC(c2ccc(Nc3nc4c(-c5cnn(-c6ccc(F)cc6)c5)cccn4n3)cc2)CC1` [Example 280, 4-{4-[8-(1-(4-Fluoro-phenyl)-1H-pyrazol-4-yl)-[1,2,4]triazolo[1,5-a]pyridine-2-ylamino]-phenyl}-piperidine-1-carboxylic acid tert-butyl ester], with 5.96.

As to `COc1cnc(-c2cccn3nc(Nc4ccc(C5CCN(C(=O)OC(C)(C)C)CC5)cc4)nc23)cn1` [Example 284, 4-{4-[8-(5-Methoxy-pyrazin-2-yl)-[1,2,4]triazolo[1,5-a]pyridine-2-ylamino]-phenyl}-piperidine-1-carboxylic acid tert-butyl ester], the pIC50 is 5.83. Turning to `Cc1ccc(-n2cc(-c3cccn4nc(Nc5ccc(C6CCN(C(=O)OC(C)(C)C)CC6)cc5)nc34)cn2)cc1` [Example 287, 4-{4-[8-(1-p-Tolyl-1H-pyrazol-4-yl)-[1,2,4]triazolo[1,5-a]pyridine-2-ylamino]-phenyl}-piperidine-1-carboxylic acid tert-butyl ester], the pIC50 was 5.77.
